Patent publication US20160052926A1, “NOVEL PYRIMIDINE AND PYRIDINE COMPOUNDS AND USAGE THEREOF” (HUTCHISON MEDIPHARMA LIMITED, priority 2013, published 2016)

What was measured:
Recombinant human FGFR1 = Recombinant human FGFR1 (Homo sapiens, UniProt P11362); assay: Transcreener Kinase Assay of FGFR1; type: biochemical; conditions: read-out: FGFR1 (FP) IC50
Recombinant human FGFR2 = Recombinant human FGFR2 (Homo sapiens, UniProt P21802); assay: Transcreener Kinase Assay of FGFR2; type: biochemical; conditions: read-out: FGFR2 (FP) IC50
Chain of Recombinant human FGFR2 (P21802 22-821): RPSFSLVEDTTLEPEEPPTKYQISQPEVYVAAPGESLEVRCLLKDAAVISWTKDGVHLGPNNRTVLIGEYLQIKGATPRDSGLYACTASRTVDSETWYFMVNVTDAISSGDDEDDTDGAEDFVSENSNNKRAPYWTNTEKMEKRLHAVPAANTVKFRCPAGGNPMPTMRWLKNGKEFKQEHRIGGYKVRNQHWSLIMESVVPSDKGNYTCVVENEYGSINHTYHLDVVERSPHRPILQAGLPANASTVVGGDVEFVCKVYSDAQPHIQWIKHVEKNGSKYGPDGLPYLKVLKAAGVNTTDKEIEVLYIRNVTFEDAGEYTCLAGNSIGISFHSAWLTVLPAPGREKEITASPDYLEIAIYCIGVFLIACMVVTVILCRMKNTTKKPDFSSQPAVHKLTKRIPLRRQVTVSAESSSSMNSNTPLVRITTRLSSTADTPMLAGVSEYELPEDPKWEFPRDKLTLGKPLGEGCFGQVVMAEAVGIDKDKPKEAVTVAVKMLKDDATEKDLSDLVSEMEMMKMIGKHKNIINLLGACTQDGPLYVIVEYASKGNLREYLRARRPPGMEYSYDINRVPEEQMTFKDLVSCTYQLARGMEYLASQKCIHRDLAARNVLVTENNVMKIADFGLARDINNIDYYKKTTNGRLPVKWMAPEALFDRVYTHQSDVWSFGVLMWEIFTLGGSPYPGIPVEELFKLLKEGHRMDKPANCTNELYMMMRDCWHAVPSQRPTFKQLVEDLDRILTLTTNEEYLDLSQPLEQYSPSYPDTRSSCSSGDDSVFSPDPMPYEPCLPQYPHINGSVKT

SNU-16 = assay: Cellular Proliferation Assay (Cell Counting Kit-8), SNU-16; type: cell-based; conditions: Homo sapiens, SNU-16 cells, 72 hours
In short: (§1)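 Proliferation was read as OD at 450 nm after 1 h with CCK-8, following 72 h drug exposure at 37 °C, 5% CO2. Inhibition was calculated against cells in 0.5% DMSO minus medium blank, and the 50% point reported. The compound series (10–0.004 μM, pre-addition, in 5% DMSO) was added one day after plating KG-1, SNU-16 and RT-112 at 30,000, 5,000 and 1,000 cells/well respectively.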

KG-1 = assay: Cellular Proliferation Assay (Cell Counting Kit-8), KG-1; type: cell-based; conditions: Homo sapiens, KG1 cells, 72 hours
In short: as §1

RT-112 = assay: Cellular Proliferation Assay (Cell Counting Kit-8), RT-112; type: cell-based; conditions: Homo sapiens, RT-112 cells, 72 hours
In short: as §1

FGFR3 kinase = FGFR3 kinase (Homo sapiens, UniProt P22607); assay: Z-Lyte Kinase Assay of FGFR3; type: biochemical
Chain of FGFR3 kinase (P22607 23-806): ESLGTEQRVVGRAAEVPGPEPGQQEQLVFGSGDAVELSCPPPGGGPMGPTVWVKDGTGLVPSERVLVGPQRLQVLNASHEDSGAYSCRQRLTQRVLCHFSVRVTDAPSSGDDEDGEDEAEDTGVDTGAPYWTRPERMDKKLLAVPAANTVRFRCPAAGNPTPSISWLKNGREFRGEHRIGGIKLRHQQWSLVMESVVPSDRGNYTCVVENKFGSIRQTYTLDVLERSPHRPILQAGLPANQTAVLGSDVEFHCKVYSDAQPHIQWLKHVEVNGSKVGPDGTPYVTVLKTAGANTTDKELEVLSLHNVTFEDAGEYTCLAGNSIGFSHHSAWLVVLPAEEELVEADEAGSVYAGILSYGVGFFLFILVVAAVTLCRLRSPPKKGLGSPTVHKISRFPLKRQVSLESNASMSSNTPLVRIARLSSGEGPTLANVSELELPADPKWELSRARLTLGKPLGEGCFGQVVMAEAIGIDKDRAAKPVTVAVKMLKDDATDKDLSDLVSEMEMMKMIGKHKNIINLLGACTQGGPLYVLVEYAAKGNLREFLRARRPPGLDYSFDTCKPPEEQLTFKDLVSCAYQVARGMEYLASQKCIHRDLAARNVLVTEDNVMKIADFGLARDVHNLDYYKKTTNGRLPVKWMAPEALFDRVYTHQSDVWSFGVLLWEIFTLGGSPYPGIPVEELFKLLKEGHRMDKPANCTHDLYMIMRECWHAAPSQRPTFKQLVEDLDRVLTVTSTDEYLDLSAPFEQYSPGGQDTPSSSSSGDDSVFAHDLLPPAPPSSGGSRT
In short: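 FRET peptide-cleavage format: 1 h kinase reaction at RT (25-30[…]), then 1 h protease development, then stop and dual-emission read (Ex400, Em445/520 nm). Working solutions: kinase 0.7 μg/ml, Tyr 4 peptide 4 μM, ATP 300 uM in 1.33× buffer; eight compound concentrations from 1 μM, 2% DMSO final.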

Chain of Recombinant human FGFR1 (P11362 22-822): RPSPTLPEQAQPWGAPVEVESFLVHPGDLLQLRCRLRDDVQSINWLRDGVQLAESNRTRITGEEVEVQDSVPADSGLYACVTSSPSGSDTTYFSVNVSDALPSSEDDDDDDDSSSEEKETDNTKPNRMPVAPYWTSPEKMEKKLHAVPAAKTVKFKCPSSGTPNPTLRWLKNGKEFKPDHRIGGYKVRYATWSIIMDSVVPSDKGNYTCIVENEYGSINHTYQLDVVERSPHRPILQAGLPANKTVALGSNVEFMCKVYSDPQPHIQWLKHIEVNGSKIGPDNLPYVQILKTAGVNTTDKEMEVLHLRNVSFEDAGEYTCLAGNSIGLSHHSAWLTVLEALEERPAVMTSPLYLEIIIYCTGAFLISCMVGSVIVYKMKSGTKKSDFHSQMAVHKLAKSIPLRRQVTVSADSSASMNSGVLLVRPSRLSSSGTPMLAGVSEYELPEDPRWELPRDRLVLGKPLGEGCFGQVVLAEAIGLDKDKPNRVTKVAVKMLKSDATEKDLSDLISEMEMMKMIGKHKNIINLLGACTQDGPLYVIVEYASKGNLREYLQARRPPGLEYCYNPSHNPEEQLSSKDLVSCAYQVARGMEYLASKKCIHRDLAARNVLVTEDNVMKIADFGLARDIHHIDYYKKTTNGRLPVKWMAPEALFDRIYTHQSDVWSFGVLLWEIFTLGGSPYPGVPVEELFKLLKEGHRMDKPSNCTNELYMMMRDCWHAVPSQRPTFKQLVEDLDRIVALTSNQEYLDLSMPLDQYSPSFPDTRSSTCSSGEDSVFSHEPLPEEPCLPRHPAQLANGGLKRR

SMILES	IC50 (Recombinant human FGFR1) [nM]	IC50 (Recombinant human FGFR2) [nM]	IC50 (SNU-16) [nM]	IC50 (KG-1) [nM]	IC50 (RT-112) [nM]	IC50 (FGFR3 kinase) [nM]
CCn1cc(Nc2ncc(CCc3cc(C(=O)NC)cc(OC)c3Cl)cn2)cn1 [Compound 115]	14	6	19	12	53	11
CNC(=O)c1cc(CCc2cnc(Nc3cnn(C(F)F)c3)nc2)c(F)c(OC)c1 [Compound 116]	27	10	45	20	19	28
CNC(=O)c1cc(CCc2cnc(Nc3cnn(C4COC4)c3)nc2)c(F)c(OC)c1 [Compound 117]	28	5	26	31	188	13
CNC(=O)c1cc(CCc2cnc(Nc3cnn(CC(C)C)c3)nc2)c(F)c(OC)c1 [Compound 118]	23	12	29	26	220	34
CNC(=O)c1cc(CCc2cnc(Nc3cnn(C4CC4)c3)nc2)c(Cl)c(OC)c1 [Compound 119]	11	6	27	22	124	19
CNC(=O)c1cc(CCc2cnc(Nc3cnn(CCOC)c3)nc2)c(F)c(OC)c1 [Compound 120]	15	7	31	32	165	17
CNC(=O)c1cc(CCc2cnc(Nc3cnn(C(C)C)c3)nc2)c(Cl)c(OC)c1 [Compound 121]	9	6	18	7	65	15
CNC(=O)c1cc(CCc2cnc(Nc3cnn(C4CCCC4)c3)nc2)c(F)c(OC)c1 [Compound 122]	14	6	13	20	67	9
CNC(=O)c1cc(CCc2cnc(Nc3cnn([C@@H]4CCOC4)c3)nc2)c(F)c(OC)c1 [Compound 123]	9	5	18	26	135	13
CNC(=O)c1cc(CCc2cnc(Nc3cnn(CCN(C)C)c3)nc2)c(F)c(OC)c1 [Compound 125]	28	19	29	30	750	20
CNC(=O)c1cc(CCc2cnc(Nc3cnn(CCCOC)c3)nc2)c(F)c(OC)c1 [Compound 126]	15	8	18	45	112	17
CNC(=O)c1cc(CCc2cnc(Nc3cnn(CCOC)c3)nc2)c(Cl)c(OC)c1 [Compound 127]	9	5	20	22	66	9
CNC(=O)c1cc(CCc2cnc(Nc3cnn(-c4cccnc4)c3)nc2)c(F)c(OC)c1 [Compound 128]	20	10	15	47	112	14
CNC(=O)c1cc(CCc2cnc(Nc3ccc4c(C)n(C)nc4c3)nc2)c(F)c(OC)c1 [Compound 130]	8	5	32	28	48	10
CNC(=O)c1cc(CCc2cnc(Nc3cnn(CC4(C)COC4)c3)nc2)c(F)c(OC)c1 [Compound 131]	19	8	13	37	131	11
CNC(=O)c1cc(CCc2cnc(Nc3cnn(C4CCOCC4)c3)nc2)c(F)c(OC)c1 [Compound 132]	12	6	10	20	59	6
CNC(=O)c1cc(CCc2cnc(Nc3cnn(CCCN(C)C)c3)nc2)c(F)c(OC)c1 [Compound 133]	20	8	51	345	713	16
CNC(=O)c1cc(CCc2cnc(Nc3cnn(-c4ccc(C)nc4)c3)nc2)c(F)c(OC)c1 [Compound 134]	71	8	34	33	84	24
